The source of these data is patent US11578055B2, “Triazacyclododecansulfonamide (“TCD”)-based protein secretion inhibitors” (KEZAR LIFE SCIENCES, priority 2018, dated 2023).

One data set has as its system IL-23. The experiment in a line: Human PBMC Cytokine Assay: IL-23. The class given is cell-based. As to conditions: LPS stimulation, 24 hours. Here is the method: (§1) Human PBMC were freshly isolated from whole blood collections of 3 normal donors utilizing density gradient centrifugation followed by red blood cell lysis. PBMC from each donor were assayed separately. Cells were suspended in RPMI 1640 media supplemented with 5% fetal bovine serum, 2 mM L-glutamine, 10 mM HEPES, and 1× penicillin/streptomycin. PBMC were seeded at 200,000 cells/well in 96-well round-bottom plates either without stimulation or with stimulation by lipopolysaccharide (LPS, 1 μg/mL) or antibodies against human CD3 (plate-bound, 2 μg/mL) and human CD28 (soluble, 2 μg/mL). Serial dilutions of compound in DMSO/media were simultaneously added and PBMC were incubated at 37° C., 5% CO2 for 24 hours. After 24 hours, plates were centrifuged and half of the supernatant volume removed for cytokine analysis by electrochemiluminescent immunoassay (U-PLEX® Biomarker Multiplex, Meso Scale Discovery). For viability analysis, CellTiter-Glo® (Promega) was added to the remaining material in each well and quantified via luminescent plate reader.

Data set [1] in a line: In Vitro Microsome Stability Assay (rat). Type of data set: in vitro ADME. The method, boiled down: (§2)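 Species liver microsomes in potassium phosphate buffer were preincubated at 37 °C for 3–5 min with test compound (added from 0.25 mM DMSO stock), then started with NADPH. Samples at 0 and 30 min were quenched with acetonitrile containing internal standard and analysed by LC-MS/MS; % remaining at 30 min used analyte/IS AUC ratios relative to t=0.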

A short description of data set [2]: In Vitro Microsome Stability Assay (human). Type of data set: in vitro ADME. The method, boiled down:
as §2

Data set [3] has as its system HER3 signal sequence plus 4 amino acids fused to Gaussia Luciferase (HER3-ss+4aa/Gaussia Luciferase). As to the kind of experiment: Dox Induced HER3-ss-Gluc Assay. Type of data set: cell-based. As to conditions: 24 hr, doxycycline induced, Flp-In 293 T-REx cells; read-out: 24 hr Dox Inducible Her3(ss + 4) Gluc 293FRT/TO: Mean 1050. A digest of the protocol:
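Stable Flp-In 293 T-REx line expressing HER3 signal sequence+4aa/Gaussia luciferase under doxycycline-inducible control. Cells plated the day before; compound dilutions added in doxycycline-containing medium and incubated at 37° C, 5% CO2.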

The test system of a further data set is IL-1β. The experiment in a line: Human PBMC Cytokine Assay: IL-1β. The class given is cell-based. As to conditions: LPS stimulation, 24 hours. Here is the method: as §1
Data set [4] has as its system multiple myeloma cell line NCl-H929. The experiment in a line: H929 Cell Viability Assay. Type of data set: cell-based, human. As to conditions: Homo sapiens, NCI-H929, 48 h. The method, boiled down: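 NCI-H929 myeloma cells in RPMI 1640 with 10% FBS were treated with compound dilutions for 48 h at 37 °C, and viability was then read by CellTiter-Glo luminescence. Compounds drawn without stereochemistry were tested as stereoisomer mixtures.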

The test system of the next data set is IFNγ. As to the kind of experiment: Human PBMC Cytokine Assay: IFNγ. Type of data set: cell-based. As to conditions: anti-CD3/CD28 stimulation, 24 hours. Here is the method: as §1
In data set [5] the test system is multiple myeloma cell line U266B1. The experiment in a line: U266 Cell Viability Assay. The class given is cell-based, human. As to conditions: Homo sapiens, U-266, 48 hr. A digest of the protocol: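 U266B1 myeloma cells in RPMI 1640 with 10% FBS were treated with compound dilutions for 48 h at 37° C, 5% CO2. Viability was read as CellTiter-Glo luminescence. Data for structures drawn without stereochemistry refer to stereoisomer mixtures.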

A short description of data set [6]: In Vitro Microsome Stability Assay (monkey). Type of data set: in vitro ADME. A digest of the protocol:
as §2

The next data set has as its system Human PBMC. As to the kind of experiment: Human PBMC CellTiter-Glo viability. As to conditions: no stimulation, 24 hours. Type of data set: cell-based. Here is the method: as §1
A general note: ATP-based viability assays read luminescence as a measure of living cells.

For data set [7], the system named is full length TNFα (amino acids 1-233) fused to Gaussia Luciferase. The experiment in a line: Dox Induced TNFα-FL-Gluc Assay. Type of data set: cell-based. As to conditions: 24 hr, read-out: 24 hr Dox Inducible TNFaFLGluc 293FRT/TO: Mean IC50. The method, boiled down: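 Stable Flp-In 293 T-REx line expressing doxycycline-inducible full-length TNFα fused to Gaussia luciferase; cells plated the day before, then treated with compound dilutions in doxycycline-containing medium at 37° C, 5% CO2. Unspecified stereocentres mean stereoisomer mixtures were tested.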

A short description of data set [8]: In Vitro Microsome Stability Assay (mouse). The class given is in vitro ADME. A digest of the protocol:
as §2

Another data set deals with IL-2. The experiment in a line: Human PBMC Cytokine Assay: IL-2. Type of data set: cell-based. As to conditions: anti-CD3/CD28 stimulation, 24 hours. Here is the method:
as §1

[9] abbreviates: rat liver microsomes, 30 min w/ NADPH.
The mark [10] stands for this setting: human liver microsomes, 30 min w/ NADPH.
Where [11] appears, read: monkey liver microsomes, 30 min w/ NADPH.
Setting [12] is: mouse liver microsomes, 30 min w/ NADPH.

The structures appear in SMILES notation. Like-named read-outs stand apart in the source and are kept apart here.

In the case of `COc1cc(F)ccc1N1CCN(S(=O)(=O)N2CCCN(CC3CCCCC3)CCCN(S(=O)(=O)c3ccc(N(C)C)cc3)C[C@H](C)C2)C[C@H]1C` [A177, 4-{[(3S)-9-(cyclohexylmethyl)-5-{[(3 R)-4-(4-fluoro-2-methoxyphenyl)-3-methylpiperazin-1-yl]sulfonyl}-3-methyl-1,5,9-triazacyclododecan-1-yl]sulfonyl}-N,N-dimethylaniline], the IC50 was 54 nM in the data set on IL-23; 10.9 nM in data set [3]; more than 25000 nM with IL-1β; 19 nM in the data set with IFNγ; more than 25000 nM with Human PBMC; 155 nM in [7] (Dox inducible, 293FRT/TO cells). For the same molecule, the IC50 in the data set with IL-2 is 10 nM. For the same molecule, the “Liver Microsome Stability-% Left after 30 min w/ NADPH (%) Rat” value (shortened to “Liver Microsome Stability-% Left … (%) Rat”) in [1] (setting [9]) amounted to 14.5%. Besides, the “Liver Microsome Stability-% Left after 30 min w/ NADPH (%) Human” value (shortened to “Liver Microsome Stability-% Left … (%) Human”) in data set [2] (setting [10]) turned out to be 13.7%. Moreover, the EC50 in data set [4] (H929, Celltiter-Glo) was 180 nM; in data set [5] (U266, Celltiter-Glo) it was more than 25000 nM. Also, the “Liver Microsome Stability-% Left after 30 min w/ NADPH (%) Monkey” value (“Liver Microsome Stability-% Left … (%) Monkey” for short) in data set [6] (setting [11]) worked out at 2.8%. In addition, in data set [8] (setting [12]), the “Liver Microsome Stability-% Left after 30 min w/ NADPH (%) Mouse” value (“Liver Microsome Stability-% Left … (%) Mouse” for short) is recorded as 11.6%.
For the molecule `C[C@H]1CN(S(=O)(=O)c2ccc(N(C)C)cc2)CCCN(CC2CCCCC2)CCCN(S(=O)(=O)N2CCc3cc(Cl)ccc3C2)C1` [A87], the IC50 is 200 nM in the data set on IL-23; more than 25000 nM with IL-1β; 152 nM with IFNγ; more than 25000 nM in the data set with Human PBMC; 492 nM in data set [7] (293FRT/TO); 31 nM with IL-2. Moreover, in [1] (rat, 30 min, NADPH), the “Liver Microsome Stability-% Left … (%) Rat” value came to 43.6%. Moreover, the “Liver Microsome Stability-% Left … (%) Human” value in data set [2] (human, 30 min, NADPH) is reported as 39.7%. In addition, the EC50 was 224 nM in data set [4] (H929, read-out: 48 hr H929 Viability Celltiter-Glo: Mean EC50) and more than 25000 nM in data set [5] (U266, read-out: 48 hr U266 Viability Celltiter-Glo: Mean EC50). Further, the “Liver Microsome Stability-% Left … (%) Monkey” value in data set [6] (monkey, 30 min, NADPH) is listed as 32.7%. For the same molecule, in [8] (mouse, 30 min, NADPH), the “Liver Microsome Stability-% Left … (%) Mouse” value was determined as 49.6%.
With `COc1cc(F)ccc1N1CCN(S(=O)(=O)N2CCCN(CC3CCCCC3)CCCN(S(=O)(=O)c3ccc(N(C)C)cc3)C[C@H](C)C2)CC1` [A137], the IC50 was 79 nM in the data set on IL-23; 10.8 nM in [3]; more than 25000 nM in the data set on IL-1β; 21 nM in the data set with IFNγ; more than 25000 nM in the data set on Human PBMC; 191 nM in data set [7] (Dox inducible, 293FRT/TO cells). The IC50 with IL-2 came out at 8 nM. The “Liver Microsome Stability-% Left … (%) Rat” value in data set [1] (setting [9]) was found to be 31.6%. Also, the “Liver Microsome Stability-% Left … (%) Human” value in [2] (setting [10]) is on record as 48.8%. Also, the EC50 is 282 nM in data set [4] (H929, Celltiter-Glo) and more than 25000 nM in [5] (U266, Celltiter-Glo). For the same molecule, in data set [6] (setting [11]), the “Liver Microsome Stability-% Left … (%) Monkey” value is recorded as 14.2%. The “Liver Microsome Stability-% Left … (%) Mouse” value in data set [8] (setting [12]) is 28%.
As for `C[C@H]1CN(S(=O)(=O)c2ccc(N(C)C)cc2)CCCN(CC2CCCCC2)CCCN(S(=O)(=O)N2CCc3c(C#N)cccc3C2)C1` [A151, 2-{[(3S)-9-(cyclohexylmethyl)-5-[4-(dimethylamino)benzenesulfonyl]-3-methyl-1,5,9-triazacyclododecan-1-yl]sulfonyl}-1,2,3,4-tetrahydroisoquinoline-5-carbonitrile], the “Liver Microsome Stability-% Left … (%) Rat” value in data set [1] (setting [9]) is 4.2%. Moreover, the “Liver Microsome Stability-% Left … (%) Human” value in [2] (setting [10]) is given as 4.28%. In addition, the IC50 in [3] turned out to be 276 nM; in data set [7] (Dox inducible, 293FRT/TO cells), 1220 nM. Also, the EC50 was 2710 nM in data set [4] (H929, Celltiter-Glo) and more than 25000 nM in data set [5] (U266, Celltiter-Glo). Besides, in data set [6] (setting [11]), the “Liver Microsome Stability-% Left … (%) Monkey” value is 3.98%. Also, the “Liver Microsome Stability-% Left … (%) Mouse” value in data set [8] (setting [12]) turned out to be 4.55%.

The term EC50 denotes the midpoint of the concentration-response curve.
